Test [1] deals with rats induced with Type I diabetes. Put plainly: Type I diabetes in rats induced with streptozotocin; glucose and insulin levels. It is filed as in vivo, Male Sprague-Dawley rats. As to conditions: compared to diabetic group, Insulin 1 unit and 3 unit, P-5-P 25 mg/kg daily; for plasma glucose levels: FIG. 1; for plasma insulin levels: FIG. 2. The protocol:
Male Sprague-Dawley (Charles River Laboratories, Montreal, Canada) rats weighing approximately 200 g are randomly separated into control and experimental groups. All experimental animals are given an intravenous injection of 0.1 M citrate buffered streptozotocin (pH 4.5) at a dosage of 65 mg/kg of body weight to induce diabetes mellitus. All control animals receive an intravenous injection of 0.1 M citrate buffer (pH 4.5) alone. One experimental group of rats also receives daily doses of pyridoxal-5′-phosphate (25 mg/kg body weight) (Aldrich Canada Ltd., Ontario, Canada). A second experimental group receives daily subcutanteous injections of Humulin® N (3 units per day) (insulin isophene, human biosynthetic; Eli Lilly and Co., Indianapolis, Ind.). A third experimental group receives both daily subcutaneous injections of Humulin® N (3 units per day) and a daily dose of pyridoxal-5′-phosphate (25 mg/kg body weight). […] […] All animals are fed rat chow and water ad libitum. Plasma glucose levels were done using the Infinity Glucose Reagent® (Sigma Diagnostics, St. Louis, Mo.).

Test [2] deals with rats induced with Type II diabetes. Put plainly: Type II diabetes in rats induced by sucrose feeding; plasma glucose, plasma insulin, systolic blood pressure. It is filed as in vivo, Male Sprague-Dawley rats. The note with it: P-5-P 25 mg/kg orally/day; for plasma glucose levels: FIG. 3; for plasma glucose levels / plasma insulin levels: compared to diabetic group, tolbutamide 40 and 20 mg/kg, 16 weeks; for plasma insulin levels: FIG. 4. The protocol: To determine the effect of a compound suitable for use in methods of the invention on glucose and insulin levels, as well as increases in systolic blood pressure, rats having type II diabetes are administered pyridoxal-5'-phosphate, either alone or in combination with sucrose and/or tolbutamide, and their systolic blood pressure, urine and blood glucose and insulin levels are determined. […] et al: Isr J Med Sci; 33:153-159. […] et al: Isr J Med Sci; 33:153-159, a high sucrose or fructose diet for a prolonged period is one technique used to induce Type II diabetes, specifically hypertension associated with hyperglycemia and hyperinsulinemia in animals. Male Sprague-Dawley (Charles River Laboratories, Montreal, Canada) rats weighing approximately 200 g are randomly separated into the following groups with each group having 5 amimals: a) The control group that was fed a normal diet and provided with drinking water b) The sucrose group that was fed 35% sucrose (35 gm sucrose/100 ml of drinking water/day) with an average intake of 150 ml/rat/day c) The sucrose+[…] group that was fed sucrose as stated in b above and 25 mg/kg orally/day of […] g) The sucrose+tolbutamide group that was fed sucrose as stated in b above and 20 mg/kg orally/day of tolbutamide. Total duration of the study was 16 weeks. Plasma insulin levels were measured using Rat Insulin RIA Kit (Linco Research Inc., St. Charles, Mo.). Plasma glucose levels were done using the Infinity Glucose Reagent® (Sigma Diagnostics, St. Louis, Mo.).

The source of these data is patent US20030008847A1, “Treatment of diabetes and related pathologies” (Medicure, Inc., priority 1999, published 2003).

As to `Cc1ncc(COP(=O)(O)O)c(C=O)c1O` [Example P-5-P, pyridoxal-5′-phosphate], the plasma glucose levels entry in test [1] is given as “significantly reduced”; in test [2] it was “significantly decreased”. The results for the plasma insulin levels entry in test [1] and in test [2] were “significantly increased” and “significantly decreased”, respectively. For the same molecule, the “rise in systolic blood pressure” value in test [2] (FIG. 5, tail cuff, compared to diabetic and tolbutamide treatment groups) is listed as “significantly decreased”.
Take `CCCCNC(=O)NS(=O)(=O)c1ccc(C)cc1` [tolbutamide, reference compound]: in test [2], the plasma glucose levels entry is given as “significantly decreased” and the plasma insulin levels entry is given as “significantly decreased”.
“Insulin: Humulin® N (insulin isophene, human biosynthetic; Eli Lilly and Co.)”: in test [1], the plasma glucose levels entry is recorded as “significantly reduced” and the plasma insulin levels result is recorded as “significantly increased”.
